The text below walks through data of ChEMBL document CHEMBL6177932 (J Med Chem, 2024).

In experiment [1] the test system is Mus musculus. The experiment can be described thus: Immunomodulatory activity in mouse 4T1 cells implanted BALB/c mouse assessed as reduction in Ccl2 gene expression at 1.5 to 5 mg/kg, ip administered daily for 18 days by RT-qPCR analysis. The conditions noted are these: dose 1.5-5 mg/kg, time 18.0 day. The class given is functional, organism-based.
Experiment [2] deals with T1, Vitamin D3 receptor (Mus musculus) (UniProt P48281).
T1 sequence (whole entry): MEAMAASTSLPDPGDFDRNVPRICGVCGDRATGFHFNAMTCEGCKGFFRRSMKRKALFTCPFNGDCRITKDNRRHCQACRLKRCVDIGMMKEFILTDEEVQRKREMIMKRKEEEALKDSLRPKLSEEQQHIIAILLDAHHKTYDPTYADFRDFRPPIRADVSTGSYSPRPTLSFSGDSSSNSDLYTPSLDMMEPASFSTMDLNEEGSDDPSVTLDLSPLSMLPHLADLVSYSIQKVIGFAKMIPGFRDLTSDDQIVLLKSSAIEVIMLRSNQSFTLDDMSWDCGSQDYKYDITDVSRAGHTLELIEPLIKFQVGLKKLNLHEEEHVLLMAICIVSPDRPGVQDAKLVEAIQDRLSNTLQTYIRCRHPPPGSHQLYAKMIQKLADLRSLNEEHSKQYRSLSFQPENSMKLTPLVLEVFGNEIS
The experiment can be described thus: Agonist activity at VDR in mouse 4T1 cells assessed as induction of Cyp24a1 gene at 0.1 to 10 uM measured after 24 hrs by RT-qPCR analysis. The conditions noted are these: filed as agonist, dose 0.1-10 µM. In kind it is cell-based.

Experiment [3] relates to Mus musculus. Nature of the experiment: Immunomodulatory activity in mouse 4T1 cells implanted BALB/c mouse assessed as reduction in total macrophage infiltration into tumors at 1.5 to 5 mg/kg, ip administered daily for 18 days by F4/80 staining based immunofluorescence microscopy. In kind it is functional, organism-based. The conditions noted are these: dose 1.5-5 mg/kg, time 18.0 day.

Experiment [4] deals with Vitamin D3 receptor (Mus musculus) (UniProt P48281). The experiment can be described thus: In vivo agonist activity at VDR in mouse B16-F10 cells implanted C57BL/6 mouse assessed as induction of Cyp24al gene in tumor at 5 mg/kg, ip administered 2 times at 24 hrs interval by RT-qPCR analysis. The conditions noted are these: time 48.0 hrs.
Experiment [5] deals with 4T1. The experiment can be described thus: Inhibition of class 1 HDAC in mouse 4T1 cells assessed as induction of H3K9 acetylation at 10 uM measured after 6 hrs by Western blot analysis. In kind it is cell-based. Background: Immunoblotting shows a protein as a band on a membrane.
Experiment [6] relates to Mus musculus. The experiment can be described thus: Immunomodulatory activity in mouse 4T1 cells implanted BALB/c mouse assessed as reduction in Cxcl10 gene expression at 1.5 to 5 mg/kg, ip administered daily for 18 days by RT-qPCR analysis. In kind it is functional, organism-based. The conditions noted are these: dose 1.5-5 mg/kg, time 18.0 day.
The target of experiment [7] is T2, Protein deacetylase HDAC6 (Mus musculus) (UniProt Q9Z2V5).
T2 sequence (whole entry): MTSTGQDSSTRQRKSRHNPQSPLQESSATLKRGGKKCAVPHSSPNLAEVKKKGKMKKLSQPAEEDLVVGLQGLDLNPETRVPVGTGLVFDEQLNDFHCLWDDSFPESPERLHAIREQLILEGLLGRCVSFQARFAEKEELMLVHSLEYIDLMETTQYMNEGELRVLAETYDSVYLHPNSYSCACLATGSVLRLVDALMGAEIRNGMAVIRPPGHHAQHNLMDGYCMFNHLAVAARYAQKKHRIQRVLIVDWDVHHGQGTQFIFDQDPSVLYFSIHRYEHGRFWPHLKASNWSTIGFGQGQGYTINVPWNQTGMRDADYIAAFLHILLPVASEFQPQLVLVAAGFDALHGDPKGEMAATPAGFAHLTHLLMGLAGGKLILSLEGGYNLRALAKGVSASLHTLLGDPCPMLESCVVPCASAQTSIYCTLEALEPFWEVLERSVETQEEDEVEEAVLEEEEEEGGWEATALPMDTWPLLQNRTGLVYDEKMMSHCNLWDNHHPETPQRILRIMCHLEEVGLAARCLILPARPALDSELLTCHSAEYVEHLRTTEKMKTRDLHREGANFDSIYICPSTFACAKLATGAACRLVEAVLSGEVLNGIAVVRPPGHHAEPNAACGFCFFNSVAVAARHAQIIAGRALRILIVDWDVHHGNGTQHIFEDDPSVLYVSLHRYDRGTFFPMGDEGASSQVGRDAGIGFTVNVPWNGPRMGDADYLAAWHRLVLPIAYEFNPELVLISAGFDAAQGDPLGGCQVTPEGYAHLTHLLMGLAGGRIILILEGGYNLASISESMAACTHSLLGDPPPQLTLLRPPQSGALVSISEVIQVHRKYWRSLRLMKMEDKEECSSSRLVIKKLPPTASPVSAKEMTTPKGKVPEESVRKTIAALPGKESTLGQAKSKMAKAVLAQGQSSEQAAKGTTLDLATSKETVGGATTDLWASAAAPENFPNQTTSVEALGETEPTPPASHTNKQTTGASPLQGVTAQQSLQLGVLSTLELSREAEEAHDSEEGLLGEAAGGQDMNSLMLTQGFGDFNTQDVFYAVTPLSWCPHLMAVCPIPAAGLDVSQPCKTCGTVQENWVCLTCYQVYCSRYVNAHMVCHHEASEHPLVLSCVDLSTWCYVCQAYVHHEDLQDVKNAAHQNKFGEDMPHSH
The experiment can be described thus: Inhibition of HDAC6 in mouse 4T1 cells assessed as induction of tubulin acetylation at 10 uM measured after 6 hrs by Western blot analysis. The class given is cell-based.

For experiment [8], the target named is T1, Vitamin D3 receptor (Mus musculus). Nature of the experiment: Agonist activity at VDR in mouse 4TO7 cells assessed as induction of Cyp24a1 gene at 0.1 to 10 uM measured after 24 hrs by RT-qPCR analysis. In kind it is cell-based. The conditions noted are these: filed as agonist, dose 0.1-10 µM.
Experiment [9] relates to 4T1. The experiment can be described thus: Inhibition of class 1 HDAC in mouse 4T1 cells assessed as induction of H3K27 acetylation at 10 uM measured after 6 hrs by Western blot analysis. The class given is cell-based.
The test system of experiment [10] is Mus musculus. The experiment can be described thus: Immunomodulatory activity in mouse 4T1 cells implanted BALB/c mouse assessed as induction of Il1a gene expression at 1.5 to 5 mg/kg, ip administered daily for 18 days by RT-qPCR analysis. In kind it is functional, organism-based. The conditions noted are these: dose 1.5-5 mg/kg, time 18.0 day. For orientation: Real-time PCR tracks product formation cycle by cycle.

Another experiment relates to B16-F10. The experiment can be described thus: Inhibition of class 1 HDAC in mouse B16-F10 cells assessed as induction of H3K27 acetylation at 10 uM measured after 6 hrs by Western blot analysis. In kind it is cell-based.

Activity calls are given as the source filed them. The rule behind the calls is not given here.

As to `CCC(CC)(c1ccc(C(=O)NCCCCC(=O)NO)cc1)c1ccc(OCC(O)C(C)(C)C)c(C)n1` (stereo unspecified), the result (in the experiment on Mus musculus [1]; in [2]; in experiment [4]; with Mus musculus [6]; in experiment [8]; with Mus musculus [10]) was Active. In addition, the Activity entry with Mus musculus [3] is reported as “Active; Significantly Reduced Macrophage Infiltration Into Tumor”. In addition, the inhibition entry with 4T1 [5] and with 4T1 [9] was “Active” throughout. The inhibition entry in experiment [7] was “Active; Most Efficacious Than Saha”; in the experiment with B16-F10 it was “Active; Acetylation Was Comparable Or Greater Than Saha”.
